The record followed here is patent publication US6946458B2, “N-thiolated beta-lactams: novel antibacterial agents for methicillin-resistant Staphylococcus aureus” (University of South Florida, priority 1999, dated 2005).

Molecules are shown by their SMILES.

Holding throughout (experiment): Kirby-Bauer agar disk diffusion
Test [1] relates to Staph aureus 525. The class given is cell-based, Staphylococcus aureus. Particulars: for Zones of Inhibition: Table 4, 20 μg disk loading; for Kirby-Bauer Disc Diffusion Test Results: Table 5. On the technique in general: Agar diffusion results depend on both activity and mobility in agar.
Test [2] has as its system MRSA USF653. The class given is cell-based, Staphylococcus aureus. Set-up: Kirby-Bauer Disc Diffusion Test Results: unit not given here. Conditions: for Zones of Inhibition: Table 4, 20 μg disk loading; for Kirby-Bauer Disc Diffusion Test Results: Table 5, beta-lactamase producing strain; for zone of growth inhibition, average diameter: Table 3, 6-mm disks, 20 μg test compound, 24 hours. The method, then: (§1) In this study, a selection of N-methylthio-substituted β-lactams are examined for antimicrobial activity by the Kirby-Bauer disk diffusion method on agar plates. A variety of common Gram-positive and Gram-negative bacteria are tested, including clinical isolates of methicillin-resistant Staphylococcus aureus (MRSA).
(§2) Compound susceptibility measurements are obtained from agar disk diffusion experiments using 6-mm air-dried disks impregnated with 20 μg of the test compound. The values correspond to the average diameters in mm (triplicate experiments) for the zone of growth inhibition observed after 24 h. Staphylococcus aureus (ATCC 25923) and β-lactamase-producing strains of methicillin-resistant Staphylococcus aureus (labeled as MRSA USF652-659) are obtained from Lakeland Regional Medical Center, Lakeland, Fla. Staphylococcus epidermidis, Staphylococcus simulans, Staphylococcus simulans, and Microcossus luteus are clinical isolates from University of South Florida Medical Clinic. Nieserria gonnorhoeae (β-lactamase positive) is obtained from the Tampa Branch State Laboratory. PenG is penicillin G (potassium salt). Table 1 provides the zones of growth inhibition that are observed after 24 hours using the lactams of FIGS. 1A-1I (designated A-I, respectively).
(§3) Of particular interest is the ability of these compounds to retain their effectiveness against penicillin-resistant strains of Staphylococcus aureus, a dangerous hospital-borne pathogen which is becoming difficult to treat with conventional antibiotic therapy. The lactams were screened for antibacterial activity by disk diffusion on agar plates, and the resulting zones of bacterial growth inhibition measured (see Table 3; each lactam is designated by Figure number).
(§4) Table 3: Growth inhibition zones obtained from agar disk diffusion experiments using 6-mm air-dried disks impregnated with 20 μg of the test compound. The values correspond to the average diameters in mm for the zone of growth inhibition observed after 24 hours. Staphylococcus aureus and β-lactamase-producing strains of methicillin-resistant Staphylococcus aureus (labeled MRSA USF652-659) are obtained from a clinical testing laboratory at Lakeland Regional Medical Center, Lakeland, Fla.
(§5) Those compounds were tested for bioactivity using the Kirby-Bauer test on agar plates.
(§6) Biological activity is enhanced against β-lactamase producing strains of methicillin-resistant Staphylococcus aureus (MRSA). With the lactam shown in FIG. 11A serving as a lead structure, a series of other C-4 substituted derivatives (FIGS. 11B-11I) were investigated herein. Table 5 lists microbiological data for β-lactams from Kirby-Bauer Disc Diffusion Test Results (with each lactam identified by Figure number).
(§7) Scheme I summarizes the synthesis of ester compounds 4. 4-Carboxy benzaldehyde (1) is coupled with the appropriate alcohol using DCC/DMAP, followed by reaction with p-anisidine, to give imines 2. Staudinger coupling of methoxyacetyl chloride with imine 2 gives N-aryl protected β-lactam 3. N-Dearylation of β-lactam 3 with ceric ammonium nitrate and methylthiolation with N-(methylthio)phthalimide affords N-methylthio β-lactams 4. These compounds are tested for antibacterial activity by the Kirby-Bauer method of disc diffusion on agar plates. [drawing 7]

The subject of test [3] is MRSA USF659. The class given is cell-based, Staphylococcus aureus. Set-up: Kirby-Bauer Disc Diffusion Test Results: unit not given here. Particulars: for Zones of Inhibition: Table 4, 20 μg disk loading; for Kirby-Bauer Disc Diffusion Test Results: Table 5, beta-lactamase producing strain; for zone of growth inhibition, average diameter: Table 3, 6-mm disks, 20 μg test compound, 24 hours. The method, then: as §1, §2, §3, §4, §5, §6, §7

In test [4] the test system is MRSA USF652. The class given is cell-based, Staphylococcus aureus. On the set-up: Kirby-Bauer Disc Diffusion Test Results: unit not given here. Particulars: for Zones of Inhibition: Table 4, 20 μg disk loading; for Kirby-Bauer Disc Diffusion Test Results: Table 5, beta-lactamase producing strain; for zone of growth inhibition, average diameter: Table 3, 6-mm disks, 20 μg test compound, 24 hours. The method, then: as §1, §2, §3, §4, §5, §6, §7

The subject of test [5] is MRSA USF654. The class given is cell-based, Staphylococcus aureus. Set-up: Kirby-Bauer Disc Diffusion Test Results: unit not given here. Particulars: for Zones of Inhibition: Table 4, 20 μg disk loading; for Kirby-Bauer Disc Diffusion Test Results: Table 5, beta-lactamase producing strain; for zone of growth inhibition, average diameter: Table 3, 6-mm disks, 20 μg test compound, 24 hours. How it is done:
as §1, §2, §3, §4, §5, §6, §7

In test [6] the test system is MRSA USF655. The class given is cell-based, Staphylococcus aureus. Set-up: Kirby-Bauer Disc Diffusion Test Results: unit not given here. Conditions: for Zones of Inhibition: Table 4, 20 μg disk loading; for Kirby-Bauer Disc Diffusion Test Results: Table 5; for zone of growth inhibition, average diameter: Table 3, 6-mm disks, 20 μg test compound, 24 hours. How it is done:
as §1, §2, §3, §4, §5, §6, §7

The test system of test [7] is MRSA USF657. The class given is cell-based, Staphylococcus aureus. On the set-up: Kirby-Bauer Disc Diffusion Test Results: unit not given here. Conditions: for Zones of Inhibition: Table 4, 20 μg disk loading; for Kirby-Bauer Disc Diffusion Test Results: Table 5, beta-lactamase producing strain; for zone of growth inhibition, average diameter: Table 3, 6-mm disks, 20 μg test compound, 24 hours. The method, then: as §1, §2, §3, §4, §5, §6, §7

Test [8] relates to MRSA USF658. The class given is cell-based, Staphylococcus aureus. On the set-up: Kirby-Bauer Disc Diffusion Test Results: unit not given here. Conditions: for Zones of Inhibition: Table 4, 20 μg disk loading; for Kirby-Bauer Disc Diffusion Test Results: Table 5, beta-lactamase producing strain; for zone of growth inhibition, average diameter: Table 3, 6-mm disks, 20 μg test compound, 24 hours. The method, then:
as §1, §2, §3, §4, §5, §6, §7

Test [9] has as its system MRSA USF656. The class given is cell-based, Staphylococcus aureus. Set-up: Kirby-Bauer Disc Diffusion Test Results: unit not given here. Conditions: for Zones of Inhibition: Table 4, 20 μg disk loading; for Kirby-Bauer Disc Diffusion Test Results: Table 5, beta-lactamase producing strain; for zone of growth inhibition, average diameter: Table 3, 6-mm disks, 20 μg test compound, 24 hours. How it is done: as §1, §2, §3, §4, §5, §6, §7

The subject of test [10] is S. simulans (ATCC 11631). The class given is cell-based, Staphylococcus simulans. Particulars: Table 3, 6-mm disks, 20 μg test compound, 24 hours. How it is done:
as §1, §2, §3, §4

The subject of test [11] is S. saprophyticus (ATCC 3552). The class given is cell-based, Staphylococcus saprophyticus. Particulars: Table 3, 6-mm disks, 20 μg test compound, 24 hours. How it is done: as §1, §2, §3, §4
The test system of test [12] is Staphylococcus epidermidis. The class given is cell-based. Particulars: Table 3, 6-mm disks, 20 μg test compound, 24 hours. How it is done:
as §1, §2, §3, §4

Test [13] has as its system Micrococcus luteus. The class given is cell-based. Particulars: Table 3, 6-mm disks, 20 μg test compound, 24 hours. How it is done:
as §1, §2, §3, §4

The subject of test [14] is Staphylococcus aureus (ATCC 25923). The class given is cell-based. Conditions: Table 3, 6-mm disks, 20 μg test compound, 24 hours. How it is done:
as §1, §2, §3, §4

Consider `COC1C(=O)N(SC)C1c1ccccc1Cl` (racemic) [Methyl-thio], for which the “Zones of Inhibition” value is listed as 26 mm in test [1]; 29 mm in test [2]; 23 mm in [3]; 30 mm in test [4]; 26 mm in test [5]; 26 mm in [6]. Moreover, the “Zones of Inhibition” value in test [7] is listed as 27 mm; in [8], 26 mm; in test [9], 28 mm.

For the compound `COC1C(=O)N(SC)C1c1ccc(Cl)cc1` (racemic) [FIG. 11H], the “Kirby-Bauer Disc Diffusion Test Results” value in test [1] was 24; in test [2], 28; in test [3] it was 18; in test [4], 24; in test [5], 23; in [6] it was 23. The “Kirby-Bauer Disc Diffusion Test Results” value in test [7] came out at 22; in test [8] it was 20; in [9] it was 22.

Take `COC1C(=O)N(SC)C1C#Cc1ccccc1` (racemic) [FIG. 11A]: the “Kirby-Bauer Disc Diffusion Test Results” value in test [1] worked out at 27; in [2] it was 29; in test [3] it was 24; in test [4], 29; in test [5], 27; in [6], 27. Also, the “Kirby-Bauer Disc Diffusion Test Results” value in test [7] is listed as 28; in [8], 27; in test [9] it was 30.

Consider `COC1C(=O)N(SC)C1c1ccc(C#N)cc1` (racemic) [FIG. 11D], for which the “Kirby-Bauer Disc Diffusion Test Results” value in test [1] worked out at 14; in test [2] it was 16; in test [3], 12; in [4], 14; in test [5], 0; in test [6], 12. The “Kirby-Bauer Disc Diffusion Test Results” value is 10 in [7], 12 in [8] and 13 in test [9].

Consider `CCCCSN1C(=O)C(OC)C1c1ccccc1Cl` (racemic) [Butylthio], for which the “Zones of Inhibition” value in test [1] was 25 mm; in [2], 27 mm; in [3], 24 mm; in test [4], 26 mm; in test [5], 23 mm; in test [6], 23 mm. Moreover, the “Zones of Inhibition” value in test [7] is recorded as 26 mm; in test [8], 20 mm; in test [9] it was 25 mm.

In the case of `COC1C(=O)N(SC)C1C=Cc1ccccc1` (racemic) [FIG. 3A], the “zone of growth inhibition, average diameter” value (from here on “zone of growth inhibition”) in test [10] (listed as 3A) worked out at 9 mm; in test [11] (listed as 3A), 14 mm; in test [12] (listed as 3A), 12 mm; in test [13] (listed as 3A) it was 11 mm; in test [14] (listed as 3A), 10 mm; in test [2] (listed as 3A), 18 mm. For the same compound, the “zone of growth inhibition” value was determined as 10 mm in [3] (listed as 3A); 10 mm in test [4] (listed as 3A); 12 mm in [5] (listed as 3A); 12 mm in [6] (listed as 3A); 11 mm in [7] (listed as 3A); 10 mm in test [8] (listed as 3A). Further, in [9] (listed as 3A), the “zone of growth inhibition” value turned out to be 13 mm.

For the compound `COC1C(=O)N(SC)C1c1cccc([N+](=O)[O-])c1` (racemic) [FIG. 11C], the “Kirby-Bauer Disc Diffusion Test Results” value in [1] stood at 15; in test [2], 22; in test [3], 11; in [4] it was 17; in [5], 16; in test [6], 14. The “Kirby-Bauer Disc Diffusion Test Results” value in test [7] was 18; in test [8] it was 17; in [9] it was 18.

Turning to `CSN1C(=O)C(OC(C)=O)C1CCc1ccccc1` (racemic) [FIG. 3F], the “zone of growth inhibition” value came out at 11 mm in [10]; 13 mm in test [11]; 18 mm in test [12]; 23 mm in test [13]; 17 mm in [14]; 18 mm in test [2]. For the same compound, the “zone of growth inhibition” value in test [3] was 16 mm; in test [4], 17 mm; in [5], 17 mm; in test [6], 15 mm; in test [7], 17 mm; in test [8], 15 mm. Moreover, the “zone of growth inhibition” value in test [9] came out at 18 mm.

With `COC1C(=O)N(SC)C1C#Cc1ccccc1` (racemic) [FIG. 2B], the “zone of growth inhibition” value in test [10] is 19 mm; in [11], 23 mm; in test [12] it was 30 mm; in test [13] it was 28 mm; in test [14], 27 mm; in test [2], 29 mm. The “zone of growth inhibition” value came to 24 mm in [3]; 29 mm in [4]; 27 mm in [5]; 27 mm in [6]; 28 mm in [7]; 27 mm in test [8]. For the same compound, the “zone of growth inhibition” value in test [9] was 30 mm.

As to `COC1C(=O)N(SC)C1C=Cc1ccccc1` (racemic) [FIG. 3B], the “zone of growth inhibition” value in test [10] (listed as 3B) turned out to be 12 mm; in test [11] (listed as 3B), 16 mm; in [12] (listed as 3B), 26 mm; in test [13] (listed as 3B), 23 mm; in test [14] (listed as 3B), 21 mm; in test [2] (listed as 3B), 26 mm. Also, the “zone of growth inhibition” value in [3] (listed as 3B) was 17 mm; in [4] (listed as 3B), 25 mm; in test [5] (listed as 3B), 22 mm; in [6] (listed as 3B), 21 mm; in test [7] (listed as 3B) it was 22 mm; in [8] (listed as 3B), 21 mm. Further, in test [9] (listed as 3B), the “zone of growth inhibition” value was 24 mm.
